Test results published in PubChem BioAssay AID1259418 (Broad Institute, 2018).
Values joined by “and” are separate entries in the source; they are usually repeats but may differ in a detail not shown here. Equal values may be shown once. Inconclusive results are not listed. Active and inactive are the calls of the source.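 The calls were made as follows: active = fitted half-maximal concentration of signal decrease at or below twice the sample's top tested concentration; inconclusive = flat curve between -70 and -30 percent, or poor fit; inactive = flat within 30 percent, signal rise, or potency above limit.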 Positions of bridges follow the written chain, without caps; N, C: chain ends. Non-standard residues stand in square brackets, D forms with d. Residues, ends and D or L forms follow the SMILES beside them. ξ: configuration not given here. *: point of attachment. Heptanoyl(6-Me) = CC(C)CCCCC(=O)*; ξDab = NCCC(N)C(=O)O; ξT = CC(O)C(N)C(=O)O

These compounds were tested against T. gondii ME49Luc in IFN-y HeLa, luciferase, 72 h (assay: inhibitors of Toxoplasma growth in IFN-γ-primed HeLa – cell-based, ME49Luc, luciferase, 72 h, dose response (AID 1259418)).
With `COc1ccc(-c2nc3c(s2)CN(S(=O)(=O)c2ccccc2C)CC3)cc1` the AC50 was 6.3 µM and 8.21 µM.
In the case of `O=C1CNC[C@@H]2[C@@H](c3ccc(C#Cc4cccnc4)cc3)[C@@H](CO)N12`, the AC50 is reported as 14.1 µM and 18.2 µM.
`O=C(C[C@@H]1CC[C@@H]2[C@H](COC[C@@H](O)CN2S(=O)(=O)c2ccccc2)O1)NCC1CCCCC1` was tested, and the AC50 was 20.8 µM.
`Cc1ccc2c(c1C)-n1cccc1C1(CCN(C(=O)c3ccccc3Br)CC1)N2` gave an AC50 of 17.7 µM.
`Cc1ccc(-c2nc(CN3CCN(C(=O)Nc4ccc(C)c(Cl)c4)CC3)c(C)o2)cc1` was tested, and the AC50 was > 39 µM (inactive).
Compound `Cc1oc(-c2cccc(Cl)c2)nc1CN1CCN(C(=O)Nc2ccc(Cl)cc2)CC1` has an AC50 of 22.4 µM.
With `O=C(NCCc1csc(-c2ccccc2)n1)[C@H]1CCCN1C(=O)CCc1ccccc1` the AC50 was > 39 µM (inactive).
With `Cc1nc(CCNC(=O)C2CCN(S(=O)(=O)c3ccc(C(C)(C)C)cc3)CC2)cs1` the AC50 was 31.4 µM.
For `Cc1ccc(-c2nc(CN3CCN(C(=O)NC4CCCC4)CC3)c(C)o2)cc1`, the AC50 was 20.9 µM.
`CC(C)CCCCC(=O)NC(CCN)C(=O)NC(C(=O)NC(CCN)C(=O)NC1CCNC(=O)C(C(C)O)NC(=O)C(CCN)NC(=O)C(CCN)NC(=O)[C@H](CC(C)C)NC(=O)[C@@H](CC(C)C)NC(=O)C(CCN)NC1=O)C(C)O` (stereo partly drawn) ({Heptanoyl(6-Me)}-[ξDab][ξT][ξDab][ξDab][ξDab][dL]L[ξDab][ξDab][ξT]; lactam 4-C) gave an AC50 of 18.3 µM.
Work on `Fc1ccccc1CSc1nc(NCc2ccc(Cl)cc2)c2ccccc2n1` yielded an AC50 of 17.4 µM.
Compound `N#C[C@H]1[C@@H](c2ccc(-c3cccnc3)cc2)[C@@H](CO)N1C(=O)Nc1ccc(F)cc1` has an AC50 of 12.7 µM.
For `CCCNC(=O)C[C@H]1CC[C@H]2[C@@H](COC[C@@H](O)CN2C(=O)Nc2ccc(Cl)c(Cl)c2)O1`, the AC50 was 25.9 µM.
Work on `COc1ccc(CNC2=NCCNC23CCN(S(=O)(=O)c2ccc(C(C)C)cc2)CC3)cc1` yielded an AC50 of 19.9 µM.
For `COc1ccc(-c2nc(Nc3ccc(CN4CCC(C)CC4)cc3)c3ccccc3n2)cc1`, the AC50 was 9.71 µM and 14.6 µM.
Compound `Cc1cccc(CNC2=NCCNC23CCN(S(=O)(=O)c2ccc(CC(C)C)cc2)CC3)c1` has an AC50 of 8.2 µM.
In the case of `O=C1CN(S(=O)(=O)c2cccc(F)c2)C[C@@H]2[C@@H](c3ccc(C4=CCCC4)cc3)[C@H](CO)N12`, the AC50 is reported as > 39 µM (inactive).
With `CCOC(=O)c1nn(Cc2ccccc2)c2c1CN(C(=O)CN1CC(c3ccccc3)CC1=O)CC2` (centres undefined) the AC50 was > 39 µM (inactive).
With `N#C[C@H]1[C@H](c2ccc(C#Cc3ccccc3F)cc2)[C@@H](CO)N1C(=O)c1cccnc1` the AC50 was > 39 µM (inactive).
Work on `O=C1CCc2cc(S(=O)(=O)NCCc3ccccc3)cc3c2N1CCC3` yielded an AC50 of 14 µM.
With `CCOc1ccc(-c2nc3c(s2)CN(S(=O)(=O)c2cccc(F)c2)CC3)cc1` the AC50 was > 39 µM (inactive).
In the case of `CCOc1ccc(-c2nc(CN(c3cccc(OC)c3)S(=O)(=O)c3ccccc3)c(C)o2)cc1`, the AC50 is reported as 6.87 µM.
For `O=C(NC1CCCC1)N1CCCCN2[C@@H](CO)[C@H](c3ccc(-c4cccnc4)cc3)[C@@H]2C1`, the AC50 was 23.3 µM.
For `COc1ccc(-c2nc(CN(c3ccccc3)S(=O)(=O)c3ccccc3)c(C)o2)cc1`, the AC50 was 9.08 µM.
With `COc1ccc(C#Cc2ccc([C@@H]3[C@H]4CN(C(=O)NC(C)C)CC(=O)N4[C@H]3CO)cc2)cc1` the AC50 was 9.33 µM and 7.45 µM.
`Fc1ccccc1CSc1nc(NCc2ccccc2)c2ccccc2n1` was tested, and the AC50 was 17.9 µM.
Work on `COc1ccc(-c2nc(NCCN3CCC(C)CC3)c3ccccc3n2)cc1` yielded an AC50 of 9.97 µM.
For `COc1ccc(-c2ccc3c(c2)[C@H]2[C@H](CCN2C(=O)c2cccc(F)c2)[C@H](CO)N3)cc1`, the AC50 was 16 µM.
In the case of `CN(C)C1CCN(Cc2cccc(C#N)c2)C(C(=O)O)C1` (centres undefined), the AC50 is reported as 9.32 µM.
Work on `O=C(CC1Nc2c3ccccc3nc(=S)n2C1=O)NCc1ccccc1Cl` (centres undefined) yielded an AC50 of 28.7 µM.
`CC(C)Oc1ccc(NC(=O)c2nc3c(n2C(C)C)CCN(C(=O)c2ccccc2)C3)cc1` gave an AC50 of 10.6 µM.
For `Cc1ccc(NC(=O)N2CCN(Cc3nc(-c4cccc(Cl)c4)oc3C)CC2)cc1`, the AC50 was > 39 µM (inactive).
`COc1ccc2c(c1)NC1(CCN(C(=O)Cc3ccc(OC)c(OC)c3)CC1)c1cccn1-2` was tested, and the AC50 was > 39 µM (inactive).
`O=C(NCCc1csc(-c2ccccc2)n1)[C@H]1CCCN1S(=O)(=O)c1ccc(Cl)s1` showed an AC50 of 12.9 µM.
In the case of `COc1ccccc1CNC(=O)CC1N=C2c3ccccc3N=C(SCc3ccccc3Cl)N2C1=O` (centres undefined), the AC50 is reported as 20.4 µM.
Compound `Cc1ccc(CNc2nc(-c3ccc(Cl)cc3)nc3ccccc23)cc1` has an AC50 of 37 µM.
`CCCCCCCCCCCCCCCC[N+](C)(C)C` was tested, and the AC50 was 16.3 µM.
`CC(C)Cc1ccc(S(=O)(=O)N2CCC[C@@H]2C(=O)NCCc2csc(-c3ccccc3)n2)cc1` showed an AC50 of 12.4 µM.
In the case of `COc1ccc(N(Cc2nc(-c3ccccc3OC)oc2C)S(=O)(=O)c2ccc(OC)cc2)cc1`, the AC50 is reported as 17.9 µM.
Work on `COc1ccc(-c2nc(N(C)Cc3ccco3)c3ccccc3n2)cc1` yielded an AC50 of 17 µM.
For `COc1cccc(-c2ccc(C3[C@@H]4CN(Cc5ccccn5)C[C@H]3N4)cc2)c1` (some centres undefined), the AC50 was 15.6 µM.
With `COc1cccc(N(Cc2nc(-c3ccc(C)cc3)oc2C)S(=O)(=O)c2ccc(C)cc2)c1` the AC50 was 7.83 µM.
`CC/C(=C(\c1ccccc1)c1ccc(OCCN(C)C)cc1)c1ccccc1` gave an AC50 of 35.2 µM.
`O=C(CCC1N=C2c3ccccc3N=C(SCc3ccccc3F)N2C1=O)NCc1ccccc1` (centres undefined) was tested, and the AC50 was 29.4 µM.
